Reference: patent US20070010402A1, “Novel herbicides, usage thereof, novel thienopyrimidine derivatives, intermediates of the same, and process for production thereof” (NIHON NOHYAKU CO., LTD.,, priority 2002, published 2007)

Columns and labels:
Type in all cases: in vivo
[1] = system: Digitaria ciliaris; test: Field soil treatment test (Test Example 2); details: soil spray after seeding, wettable powder, active ingredient 10 g/a, 21st day from the treatment
Procedure: (§1) The herbicidal effect was evaluated in terms of herbicidal rate obtained from the following equation: Herbicidal rate (%)=[1−(Weight of weeds above the ground in a treated plot)/(Weight of weeds above the ground in a non-treated plot)]×100 and was expressed by herbicidal index according to the following criteria. [table] Alluvial soil from a field was put in a resin-made vat having an area of 200 cm^2. After fertilization, the seeds of Digitaria ciliaris, Chenopodium album and Polygonum lapathifolium were cast on the soil and uniformly covered with the soil. The wettable powder obtained in Formulation Example 1 was diluted with water and a predetermined amount thereof was sprayed uniformly to the soil by means of a small-sized power pressure spray so as to give 10 g of the active ingredient per an are. Thereafter, cultivation was further continued in the greenhouse, and the herbicidal effect was examined on the 21st day from the treatment. The results obtained are shown in Table 8 (the compound numbers in Table 8 correspond to those in Tables 1 to 6).

[2] = system: Chenopodium album; test: Field soil treatment test (Test Example 2); details: soil spray after seeding, wettable powder, active ingredient 10 g/a, 21st day from the treatment
Procedure: as §1

[3] = system: Polygonum lapathifolium; test: Field soil treatment test (Test Example 2); details: soil spray after seeding, wettable powder, active ingredient 10 g/a, 21st day from the treatment
Procedure: as §1

[4] = system: Echinochloa oryzicola; test: Submerged foliar treatment test (Test Example 3); details: water depth 3 cm, cotyledon to 1-leaf stage, wettable powder, active ingredient 10 g/a, 28th day from the treatment
Procedure: (§2) The herbicidal effect was evaluated in terms of herbicidal rate obtained from the following equation: Herbicidal rate (%)=[1−(Weight of weeds above the ground in a treated plot)/(Weight of weeds above the ground in a non-treated plot)]×100
(§3) and was expressed by herbicidal index according to the following criteria.
(§4) Alluvial soil from a paddy field was put in a resin-made vat having an area of 200 cm^2. After fertilization, seeds of Echinochloa oryzicola, Rotala indica and Scirpus juncoides were cast on the soil and uniformly covered with the soil, and water was poured onto the soil to keep a water depth of 3 cm. Then, cultivation was continued in a greenhouse, and when the weeds to be tested reached the cotyledon stage to 1-leaf stage, the wettable powder obtained in Formulation Example 1 was diluted with water and a predetermined amount thereof was added dropwise uniformly to the weeds by means of a pipette to give 10 g of the active ingredient per an are. Thereafter, cultivation was further continued in the greenhouse, and the herbicidal effect was examined on the 28th day from the treatment. The results obtained are shown in Table 9 (the compound numbers in Table 9 correspond to those in Tables 1 to 6).

[5] = system: Scirpus juncoides; test: Submerged foliar treatment test (Test Example 3); details: water depth 3 cm, cotyledon to 1-leaf stage, wettable powder, active ingredient 10 g/a, 28th day from the treatment
Procedure: as §2, §3, §4

[6] = system: Rotala indica; test: Submerged foliar treatment test (Test Example 3); details: water depth 3 cm, cotyledon to 1-leaf stage, wettable powder, active ingredient 10 g/a, 28th day from the treatment
Procedure: as §2, §3, §4

Compound	Herbicidal effect Digitaria ciliaris (herbicidal index) [1]	Herbicidal effect Chenopodium album (herbicidal index) [2]	Herbicidal effect Polygonum lapathifolium (herbicidal index) [3]	Herbicidal effect Echinochloa oryzicola (herbicidal index) [4]	Herbicidal effect Scirpus juncoides (herbicidal index) [5]	Herbicidal effect Rotala indica (herbicidal index) [6]
Cc1cc2c(-c3cccc(C(F)(F)F)c3)nc(OC(C)(C)C)nc2s1 [6-27]	5 (91 to 100)	5 (91 to 100)	4 (71 to 90)	–	–	–
Cc1cc2c(-c3ccc(F)c(C(F)(F)F)c3)nc(OC(C)C)nc2s1 [6-30]	5 (91 to 100)	5 (91 to 100)	5 (91 to 100)	–	–	–
Cc1cc2c(-c3cccc(OC(F)(F)F)c3)nc(OC(C)C)nc2s1 [6-36]	5 (91 to 100)	5 (91 to 100)	5 (91 to 100)	–	–	–
CCOc1nc(-c2ccccc2C(F)(F)F)c2cc(C)sc2n1 [6-43]	5 (91 to 100)	5 (91 to 100)	2 (31 to 50)	–	–	–
C=CCOc1nc(-c2cccc(C(F)(F)F)c2)c2cc(C)sc2n1 [6-88]	5 (91 to 100)	5 (91 to 100)	5 (91 to 100)	–	–	–
Cc1cc2c(-c3cccc(C(F)(F)F)c3)nc(OC(C)C(F)(F)F)nc2s1 (stereo not drawn) [6-100]	5 (91 to 100)	5 (91 to 100)	5 (91 to 100)	–	–	–
Cc1cc2c(-c3cccc(C(F)(F)F)c3)nc(OCC(F)(F)C(F)(F)F)nc2s1 [6-101]	5 (91 to 100)	5 (91 to 100)	4 (71 to 90)	–	–	–
Cc1cc2c(-c3cccc(C(F)(F)F)c3)nc(OCC(F)(F)C(F)F)nc2s1 [6-103]	5 (91 to 100)	5 (91 to 100)	5 (91 to 100)	–	–	–
Cc1cc2c(-c3cccc(OC(F)(F)F)c3)nc(OCCF)nc2s1 [6-107]	5 (91 to 100)	5 (91 to 100)	5 (91 to 100)	–	–	–
Cc1cc2c(-c3cccc(OC(F)(F)F)c3)nc(OCC(F)(F)F)nc2s1 [6-108]	5 (91 to 100)	5 (91 to 100)	5 (91 to 100)	–	–	–
Cc1cc2c(-c3cccc(OC(F)(F)F)c3)nc(OC(C)C(F)(F)F)nc2s1 (stereo not drawn) [6-110]	5 (91 to 100)	5 (91 to 100)	5 (91 to 100)	–	–	–
Cc1cc2c(-c3cccc(OC(F)(F)F)c3)nc(OCC(F)(F)C(F)(F)F)nc2s1 [6-111]	5 (91 to 100)	5 (91 to 100)	5 (91 to 100)	–	–	–
Cc1cc2c(-c3cccc(SC(F)(F)F)c3)nc(OCC(F)(F)C(F)F)nc2s1 [6-119]	5 (91 to 100)	5 (91 to 100)	5 (91 to 100)	–	–	–
Cc1cc2c(-c3cccc(OC(F)F)c3)nc(OCC(F)(F)F)nc2s1 [6-121]	5 (91 to 100)	5 (91 to 100)	5 (91 to 100)	–	–	–
Cc1cc2c(-c3cccc(OC(F)F)c3)nc(OCC(F)F)nc2s1 [6-122]	5 (91 to 100)	5 (91 to 100)	5 (91 to 100)	–	–	–
Cc1cc2c(-c3cccc(SC(F)F)c3)nc(OCC(F)(F)F)nc2s1 [6-127]	–	–	–	5 (91 to 100)	4 (71 to 90)	5 (91 to 100)
Cc1cc2c(-c3cccc(C(F)(F)F)c3)nc(Oc3ccccc3)nc2s1 [6-146]	–	–	–	4 (71 to 90)	2 (31 to 50)	5 (91 to 100)
